{
  "source": "patent US20260055431A1",
  "about": "“METHODS OF DELIVERING COMPONENTS TO MICROORGANOSPHERES” (Xilis, Inc., priority 2022, published 2026)",
  "key": {"[1]": {"test_system": "MOSs derived from multiple myeloma (MM) bone marrow biopsies", "test": "Multiple myeloma MOS apoptosis assay, Caspase 3/7 green dye, Incucyte imaging", "type": "cell-based, human", "details": "imaged every 2 hours for 4 days", "description": "FIGS. 36A and 36B show the efficacy of Lenalidomide and Bortezoid on MOSs derived from multiple myeloma (MM) bone marrow biopsies. MM MOSs (on day 11) were treated with Lenalidomine (5 uM) or Bortezoid (2 nM). Caspase 3/7 green dye was added in the assay to monitor apoptosis. Incucyte images were taken every 2 hours for 4 days. […] If this test were run on, for example, traditional bulk organoids, the results would not be reliable (due to the lack of patient immune cells) leading to uncertainty in the best course of action for patient treatment."}, "[2]": {"test_system": "MOSs generated from biopsy material", "test": "Drug effect screen on MOSs from biopsy material (Example 3)", "type": "cell-based, human", "details": "Example 3 patient biopsy", "description": "(§1) In a similar set of experiments, MOSs were generated from biopsy material (FIG. 23A), and a drug effect screen was performed using the resulting MOSs. […] Thus, the MOSs correlated strongly with patient response to the standard of care drugs. In this case, the patient endured six months of side effects and toxicities that may have been avoided by the predicted response from the MOSs, indicating (within 7-10 days from the biopsy) that the tumor would not respond to these drugs."}, "tumor [3]": {"test_system": "tumor", "test": "Patient response to standard of care drugs (Example 3)", "type": "in vivo, human", "details": "patient treated with both Oxalipalatin and Irinotecan, after 6 months of treatment", "description": "as §1"}, "traditional cell line": {"test_system": "traditional cell line", "test": "Traditional (2D) cell line dosed with drug", "type": "cell-based", "details": "all dose ranges examined", "from_the_text": "As mentioned above, the MOSs and methods of using them to screen for drug compositions may be used to accurately predict the response of a patient tumor to one or more drug therapies. […] For example, in FIG. 22A-22D, the MOSs, but not a cell line, was able to correlate with patient response."}, "[4]": {"test_system": "tumor MOSs generated from a patient biopsy", "test": "Drug screen on MOSs from patient biopsy (Example 2)", "type": "cell-based, human", "details": "Example 2 patient biopsy"}, "tumor [5]": {"test_system": "tumor", "test": "Actual tumor response of the patient to treatment (Example 2)", "type": "in vivo, human", "details": "Example 2 patient, before vs post treatment"}, "[6]": {"test_system": "PDX19187 bulk organoids and MOSs", "type": "cell-based, human", "details": "cell viabilities measured after 3 days of treatment", "description": "(§2) Organoids were formed from Patient Derived Xenograft cells (including the PDX240 cells described above and a second PDX cell line, PDX19187) and were compared with MOSs formed using the same cells. The organoids were formed using conventional techniques in which a large mass of MATRIGEL in a well or dish was seeded with cells and cultured until growth was confirmed. MOSs were generated from the traditional organoids.\n(§3) Both traditional (“bulk”) organoids and the MOSs were then treated with the same drugs (e.g., Oxaliplatin or SN38) and cell viabilities were measured after 3 days of treatment."}, "[7]": {"test_system": "PDX240 bulk organoids and MOSs", "test": "Drug response of bulk organoids vs MOSs, cell viability, PDX240", "type": "cell-based, human", "details": "cell viabilities measured after 3 days of treatment", "from_the_text": "The MOSs may be formed from cell lines grown as part of a Patient Derived Xenograft (PDX). For example, FIGS. 28A-28D illustrate MOSs formed from cultured PDX240 cells. PDX240 cells are a Patient Derived Xenograft (PDX) tumor cell line (numbered 240 based on patient source) that were human tumors grown in immunodeficient mice (PDX) to form in vivo tumors. The xenograft tissue was extracted dissociated, and used to form MOSs as described above. In this example a single cell was included in each MOS as it was formed. […] With progressive time in culture, at least some of the MOSs show the cells dividing and forming structures.\nas §2, §3"}, "mouse liver MOSs": {"test_system": "mouse liver MOSs", "test": "Toxicity assay using mouse liver MOSs", "type": "cell-based", "details": "10 mM"}, "human liver MOSs": {"test_system": "human liver MOSs", "test": "Toxicity assay using human liver MOSs", "type": "cell-based", "details": "10 mM", "from_the_text": "Similarly, FIGS. 34A-34B also show toxicity assays using human liver MOSs."}, "[8]": {"test_system": "MOSs derived from a pulmonary tumor biopsy", "test": "IO assay of pulmonary tumor MOSs, Annexin V apoptosis marker", "type": "cell-based, human", "description": "(§4) IO assays of the MOSs for these pulmonary and renal tumor biopsies were prepared with an Annexin V marker to indicate cellular apoptosis. […] If this test were run on, for example, traditional bulk organoids, the results would not be meaningful (due to the lack of patient immune cells) leading to uncertainty in the best course of action for patient treatment,\n(§5) IO assays of the MOSs for this pulmonary tumor biopsy were prepared with an Annexin V marker to indicate cellular apoptosis. […] If this test were run on, for example, traditional bulk organoids, the results would be less accurate (because ESK1 would not be able to reach its target) leading to uncertainty in the best course of action for patient treatment.\nas §5, with “apoptosis and Cytolight Red dye to indicate tumor infiltrating lymphocytes (TILs).” for “apoptosis.”, “(due” for “(because ESK1 would not be able”, “the inability of PBMC to penetrate the traditional bulk organoids)” for “reach its target)”\nThis is an indication that TILs can penetrate MOS to kill tumor cells. […]"}, "[9]": {"test_system": "MOSs derived from renal tumor biopsies", "test": "IO assay of renal tumor MOSs, Annexin V apoptosis marker", "type": "cell-based, human", "details": "MOSs from renal tumor biopsy", "description": "as §4, with “treatment, […]” for “treatment,”"}},
  "note": "Entries after “also recorded” stand apart in the source; their conditions may differ. Where two headings read alike, the source gives them in different places.",
  "data": [
    {"molecule": "CC(C)C[C@H](NC(=O)[C@H](Cc1ccccc1)NC(=O)c1cnccn1)B(O)O", "note": "[Bortezoid]", "values": [
      {"measurement": "response in the form of tumor cell apoptosis (Caspase 3/7 green dye)", "setting": "[1]; MM MOSs on day 11, 2 nM", "value": "does not and not"}
    ]},
    {"molecule": "CCc1c2c(nc3ccc(OC(=O)N4CCC(N5CCCCC5)CC4)cc13)-c1cc3c(c(=O)n1C2)COC(=O)[C@]3(O)CC", "note": "[Irinotecan]", "values": [
      {"measurement": "percent survival of the MOSs in the presence of the drug", "setting": "[2]", "value": "lack of effect"},
      {"measurement": "patient response", "setting": "tumor [3]", "value": "no response"}
    ]},
    {"molecule": "Nc1cccc2c1CN(C1CCC(=O)NC1=O)C2=O", "note": "(centres unmarked) [Lenalidomide]", "values": [
      {"measurement": "response in the form of tumor cell apoptosis (Caspase 3/7 green dye)", "setting": "[1]; MM MOSs on day 11, 5 uM", "value": "good response"},
      {"measurement": "response in the form of tumor cell apoptosis (Caspase 3/7 green dye)", "setting": "[1]; MM MOSs on day 11, 5 uM, listed as Lenalidomine", "value": "induces apoptosis"}
    ]},
    {"molecule": "O=C1[O][Pt]2([NH][C@@H]3CCCC[C@H]3[NH]2)[O]C1=O", "note": "[Oxaliplatin]", "values": [
      {"measurement": "effect of drug on cell line", "setting": "traditional cell line", "value": "no effect"},
      {"measurement": "cell survival from the tumor MOSs", "setting": "[4]", "value": "significant decreases in cell survival"},
      {"measurement": "tumor response to treatment", "setting": "tumor [5]", "value": "responded to treatment"},
      {"measurement": "percent survival of the MOSs in the presence of the drug", "setting": "[2]", "value": "no change"},
      {"measurement": "patient response", "setting": "tumor [3]", "value": "no response"},
      {"measurement": "drug response curves, bulk organoids compared with MOSs", "setting": "[6]; listed as Oxalipalatin", "value": "comparable response"}
    ]},
    {"molecule": "CCc1c2c(nc3ccc(O)cc13)-c1cc3c(c(=O)n1C2)COC(=O)[C@]3(O)CC", "note": "[SN38, 7-Ethyl-10-hydroxy-camptothecin]", "values": [
      {"measurement": "drug response curves, bulk organoids compared with MOSs", "setting": "[6]", "value": "comparable responses"},
      {"measurement": "drug response curves, bulk organoids compared with MOSs", "setting": "[7]", "value": "comparable responses"}
    ]},
    {"molecule": "CC(=O)Nc1ccc(O)cc1", "note": "[acetaminophen]", "values": [
      {"measurement": "tissue in the MOSs compared with control group", "setting": "mouse liver MOSs", "value": "smaller and contains many dead cells"},
      {"measurement": "tissue in the treated MOSs compared with control group", "setting": "human liver MOSs", "value": "significant increase atypical tissue structures (arrows) and debris"}
    ]},
    {"molecule": "Nivolumab", "values": [
      {"measurement": "response in the form of tumor cell apoptosis (Annexin V marker)", "setting": "[8]", "value": "induces apoptosis; also recorded: good response"},
      {"measurement": "response in the form of tumor cell apoptosis (Annexin V marker)", "setting": "[9]", "value": "induces apoptosis; also recorded: good response"}
    ]}
  ]
}
